Assay results: publication PMC6704710, “Preclinical evaluation of 3D185, a novel potent inhibitor of FGFR1/2/3 and CSF-1R, in FGFR-dependent and macrophage-dominant cancer models” (Journal of Experimental & Clinical Cancer Research : CR, 2019)

How the values were obtained:
Pim-1(h) = target: T1, Pim-1(h) (Homo sapiens, UniProt P11309); experiment: Eurofins kinase panel; type: biochemical; settings: read-out: Inhibition rate (%)
T1 construct: purchased Eurofins (KinaseProfiler)

DAPK1(h) = target: T2, DAPK1(h) (Homo sapiens, UniProt P53355); experiment: Eurofins kinase panel; type: biochemical; settings: read-out: Inhibition rate (%)
T2 construct: purchased Eurofins (KinaseProfiler)

cKit(V654A)(h) = target: T3, cKit(V654A)(h) (Homo sapiens, UniProt P10721, V654A); experiment: Eurofins kinase panel; type: biochemical; settings: read-out: Inhibition rate (%)
T3 construct: purchased Eurofins (KinaseProfiler)
T3 sequence (P10721 26-976 V654A): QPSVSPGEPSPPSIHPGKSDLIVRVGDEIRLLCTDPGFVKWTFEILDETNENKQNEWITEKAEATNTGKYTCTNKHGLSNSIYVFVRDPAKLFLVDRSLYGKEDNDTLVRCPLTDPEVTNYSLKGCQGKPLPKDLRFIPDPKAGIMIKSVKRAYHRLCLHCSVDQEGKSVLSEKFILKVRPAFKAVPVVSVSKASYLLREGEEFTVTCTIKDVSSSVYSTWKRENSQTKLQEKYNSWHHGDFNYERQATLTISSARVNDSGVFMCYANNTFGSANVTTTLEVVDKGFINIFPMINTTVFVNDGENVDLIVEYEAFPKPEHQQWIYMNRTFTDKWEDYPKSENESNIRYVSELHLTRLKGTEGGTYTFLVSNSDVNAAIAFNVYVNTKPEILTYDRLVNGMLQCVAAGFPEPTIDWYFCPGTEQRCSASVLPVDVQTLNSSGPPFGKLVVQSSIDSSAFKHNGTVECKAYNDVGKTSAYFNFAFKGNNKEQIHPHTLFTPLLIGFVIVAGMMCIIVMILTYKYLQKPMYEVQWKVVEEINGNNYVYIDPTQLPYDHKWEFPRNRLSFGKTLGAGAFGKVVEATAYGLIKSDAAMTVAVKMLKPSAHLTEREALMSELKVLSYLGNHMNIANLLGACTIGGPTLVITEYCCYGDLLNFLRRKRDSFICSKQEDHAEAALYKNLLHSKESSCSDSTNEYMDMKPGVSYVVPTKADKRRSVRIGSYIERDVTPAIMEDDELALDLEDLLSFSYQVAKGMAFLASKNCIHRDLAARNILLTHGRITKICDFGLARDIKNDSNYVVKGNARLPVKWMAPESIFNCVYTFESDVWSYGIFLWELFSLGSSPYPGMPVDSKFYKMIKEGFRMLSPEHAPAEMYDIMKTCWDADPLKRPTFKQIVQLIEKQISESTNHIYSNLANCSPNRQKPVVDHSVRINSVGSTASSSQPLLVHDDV

PhKγ2(h) = target: T4, PhKγ2(h) (Homo sapiens, UniProt P15735); experiment: Eurofins kinase panel; type: biochemical; settings: read-out: Inhibition rate (%)
T4 construct: purchased Eurofins (KinaseProfiler)
T4 sequence (P15735 1-406): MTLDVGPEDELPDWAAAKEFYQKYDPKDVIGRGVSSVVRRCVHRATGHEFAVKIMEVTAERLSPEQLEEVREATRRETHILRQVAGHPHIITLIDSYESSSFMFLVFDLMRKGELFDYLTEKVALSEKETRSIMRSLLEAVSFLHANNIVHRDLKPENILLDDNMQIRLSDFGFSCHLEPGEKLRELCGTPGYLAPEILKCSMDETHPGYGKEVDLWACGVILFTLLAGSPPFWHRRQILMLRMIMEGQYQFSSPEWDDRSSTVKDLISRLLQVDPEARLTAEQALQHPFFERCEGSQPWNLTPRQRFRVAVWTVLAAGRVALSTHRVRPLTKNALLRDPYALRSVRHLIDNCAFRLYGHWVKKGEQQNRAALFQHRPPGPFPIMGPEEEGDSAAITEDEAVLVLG

NEK11(h) = target: T5, NEK11(h) (Homo sapiens, UniProt Q8NG66); experiment: Eurofins kinase panel; type: biochemical; settings: read-out: Inhibition rate (%)
T5 construct: purchased Eurofins (KinaseProfiler)
T5 sequence (Q8NG66 1-645): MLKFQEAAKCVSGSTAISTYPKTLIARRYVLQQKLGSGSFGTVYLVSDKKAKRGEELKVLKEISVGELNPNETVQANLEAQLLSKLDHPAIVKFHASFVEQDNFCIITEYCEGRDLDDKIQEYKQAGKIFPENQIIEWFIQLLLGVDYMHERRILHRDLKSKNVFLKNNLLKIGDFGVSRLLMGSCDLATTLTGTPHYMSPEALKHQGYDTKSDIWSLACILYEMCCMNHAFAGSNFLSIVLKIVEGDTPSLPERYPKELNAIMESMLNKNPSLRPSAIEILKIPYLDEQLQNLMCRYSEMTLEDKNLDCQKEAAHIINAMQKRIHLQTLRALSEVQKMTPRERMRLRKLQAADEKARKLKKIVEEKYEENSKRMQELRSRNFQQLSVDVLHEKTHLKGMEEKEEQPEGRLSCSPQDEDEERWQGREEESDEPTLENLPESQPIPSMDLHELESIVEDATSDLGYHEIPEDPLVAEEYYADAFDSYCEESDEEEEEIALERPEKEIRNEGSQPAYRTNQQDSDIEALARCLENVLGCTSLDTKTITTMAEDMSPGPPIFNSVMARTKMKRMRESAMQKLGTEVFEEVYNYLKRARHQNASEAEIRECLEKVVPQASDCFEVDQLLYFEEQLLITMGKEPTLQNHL

ACK1(h) = target: T6, ACK1(h) (Homo sapiens, UniProt Q07912); experiment: Eurofins kinase panel; type: biochemical; settings: read-out: Inhibition rate (%)
T6 construct: purchased Eurofins (KinaseProfiler)

PBMC (CSF-2) = experiment: Macrophage survival (CCK-8); type: cell-based; settings: Homo sapiens, 168 h, 7 days
Method: Murine bone marrow-derived macrophages (BMDMs) and PBMCs were used for cell viability studies. BMDMs were harvested by flushing the tibias and femurs of 6- to 8-week-old C57BL/6 mice and depleting red blood cells (RBCs) by RBC lysis (Biogems). For BMDM survival, the cells were cultured for 7 days in RPMI 1640 containing 10% fetal bovine serum (FBS), 100 U/mL penicillin, 100 μg/mL streptomycin and 100 ng/mL mouse CSF-1 (or CSF-2) with or without the tested compounds. PBMCs were obtained from HemaCare and cultured for 7 days in RPMI 1640 containing 10% fetal bovine serum (FBS), 100 U/mL penicillin, 100 μg/mL streptomycin and 100 ng/mL human CSF-1 (or CSF-2) with or without the tested compounds. Cell viability was measured using the CCK-8 assay. For IL-4/IL-13-induced macrophage survival analysis, viable cells were counted by trypan blue exclusion.

MST3(h) = target: T7, MST3(h) (Homo sapiens, UniProt Q9Y6E0); experiment: Eurofins kinase panel; type: biochemical; settings: read-out: Inhibition rate (%)
T7 construct: purchased Eurofins (KinaseProfiler)
T7 sequence (Q9Y6E0 whole entry): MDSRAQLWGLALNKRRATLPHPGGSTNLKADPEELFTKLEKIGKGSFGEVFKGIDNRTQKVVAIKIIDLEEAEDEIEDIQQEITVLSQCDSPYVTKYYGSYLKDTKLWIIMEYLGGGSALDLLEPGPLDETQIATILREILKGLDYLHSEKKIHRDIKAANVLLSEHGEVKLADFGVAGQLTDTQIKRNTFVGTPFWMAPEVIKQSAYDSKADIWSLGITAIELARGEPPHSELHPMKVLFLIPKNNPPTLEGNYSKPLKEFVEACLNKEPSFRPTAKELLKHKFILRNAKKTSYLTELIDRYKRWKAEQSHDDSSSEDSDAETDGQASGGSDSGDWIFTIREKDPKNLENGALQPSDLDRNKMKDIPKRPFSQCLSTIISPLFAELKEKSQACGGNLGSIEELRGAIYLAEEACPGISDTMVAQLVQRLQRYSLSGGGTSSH

WNK2(h) = target: T8, WNK2(h) (Homo sapiens, UniProt Q9Y3S1); experiment: Eurofins kinase panel; type: biochemical; settings: read-out: Inhibition rate (%)
T8 construct: purchased Eurofins (KinaseProfiler)
T8 sequence (Q9Y3S1 whole entry): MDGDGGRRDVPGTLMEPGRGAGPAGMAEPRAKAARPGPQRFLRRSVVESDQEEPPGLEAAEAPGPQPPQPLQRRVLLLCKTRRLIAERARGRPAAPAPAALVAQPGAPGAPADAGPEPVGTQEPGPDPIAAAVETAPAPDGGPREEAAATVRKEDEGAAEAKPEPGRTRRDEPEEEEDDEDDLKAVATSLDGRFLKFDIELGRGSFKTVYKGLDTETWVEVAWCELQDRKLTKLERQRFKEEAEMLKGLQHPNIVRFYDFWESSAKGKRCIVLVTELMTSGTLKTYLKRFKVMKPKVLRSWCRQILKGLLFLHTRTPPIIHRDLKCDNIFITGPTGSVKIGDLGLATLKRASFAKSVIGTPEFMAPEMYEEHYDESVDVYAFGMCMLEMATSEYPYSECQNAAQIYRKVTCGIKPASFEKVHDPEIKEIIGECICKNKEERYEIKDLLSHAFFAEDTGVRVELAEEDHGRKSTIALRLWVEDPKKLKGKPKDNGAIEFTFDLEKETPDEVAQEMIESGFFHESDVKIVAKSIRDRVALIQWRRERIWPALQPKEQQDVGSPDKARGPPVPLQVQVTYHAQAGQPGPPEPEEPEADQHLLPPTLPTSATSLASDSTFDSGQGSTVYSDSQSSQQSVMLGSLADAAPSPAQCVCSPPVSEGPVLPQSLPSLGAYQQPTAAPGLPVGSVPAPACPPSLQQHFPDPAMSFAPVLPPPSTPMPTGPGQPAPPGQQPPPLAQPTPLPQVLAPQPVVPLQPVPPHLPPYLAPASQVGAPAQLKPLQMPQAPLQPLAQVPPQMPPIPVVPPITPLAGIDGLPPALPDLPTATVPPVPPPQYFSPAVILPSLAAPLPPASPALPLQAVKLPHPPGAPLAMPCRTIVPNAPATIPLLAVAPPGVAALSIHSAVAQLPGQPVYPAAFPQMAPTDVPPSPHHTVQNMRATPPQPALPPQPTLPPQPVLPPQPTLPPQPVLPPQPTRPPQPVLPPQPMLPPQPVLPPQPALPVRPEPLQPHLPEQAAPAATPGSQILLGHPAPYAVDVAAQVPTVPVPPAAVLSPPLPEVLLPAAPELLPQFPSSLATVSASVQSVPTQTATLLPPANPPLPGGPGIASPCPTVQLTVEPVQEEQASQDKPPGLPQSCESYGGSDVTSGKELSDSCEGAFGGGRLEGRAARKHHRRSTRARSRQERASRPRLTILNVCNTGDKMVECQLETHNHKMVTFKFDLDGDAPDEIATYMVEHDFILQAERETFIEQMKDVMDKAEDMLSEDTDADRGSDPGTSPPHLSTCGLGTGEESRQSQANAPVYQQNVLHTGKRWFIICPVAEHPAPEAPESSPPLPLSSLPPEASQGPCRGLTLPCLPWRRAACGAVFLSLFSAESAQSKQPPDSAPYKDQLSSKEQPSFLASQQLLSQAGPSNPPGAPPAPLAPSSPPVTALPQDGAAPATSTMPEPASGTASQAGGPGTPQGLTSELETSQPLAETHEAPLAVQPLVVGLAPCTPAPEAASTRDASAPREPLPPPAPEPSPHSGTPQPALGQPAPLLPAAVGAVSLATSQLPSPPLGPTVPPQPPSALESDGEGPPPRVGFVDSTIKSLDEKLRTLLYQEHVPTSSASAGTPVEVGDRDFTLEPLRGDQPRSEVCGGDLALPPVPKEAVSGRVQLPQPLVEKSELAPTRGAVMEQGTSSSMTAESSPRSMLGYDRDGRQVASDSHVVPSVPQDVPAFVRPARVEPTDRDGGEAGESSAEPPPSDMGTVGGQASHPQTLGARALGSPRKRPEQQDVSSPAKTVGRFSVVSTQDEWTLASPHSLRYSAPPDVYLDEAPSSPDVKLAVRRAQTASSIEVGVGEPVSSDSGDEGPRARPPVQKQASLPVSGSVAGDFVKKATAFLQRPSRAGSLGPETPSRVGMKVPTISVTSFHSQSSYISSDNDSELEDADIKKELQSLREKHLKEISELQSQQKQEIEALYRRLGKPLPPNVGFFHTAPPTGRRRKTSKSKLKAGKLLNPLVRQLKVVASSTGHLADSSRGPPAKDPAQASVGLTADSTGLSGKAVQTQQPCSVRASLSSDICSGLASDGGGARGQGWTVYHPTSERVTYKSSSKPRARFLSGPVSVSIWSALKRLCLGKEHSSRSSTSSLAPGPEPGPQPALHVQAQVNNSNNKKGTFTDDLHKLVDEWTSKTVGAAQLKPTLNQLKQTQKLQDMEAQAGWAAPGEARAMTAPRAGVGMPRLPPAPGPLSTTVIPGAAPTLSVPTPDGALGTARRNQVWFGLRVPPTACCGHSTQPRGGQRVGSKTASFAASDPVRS

PKCη(h) = target: T9, PKCη(h) (Homo sapiens, UniProt P24723); experiment: Eurofins kinase panel; type: biochemical; settings: read-out: Inhibition rate (%)
T9 construct: purchased Eurofins (KinaseProfiler)
T9 sequence (P24723 whole entry): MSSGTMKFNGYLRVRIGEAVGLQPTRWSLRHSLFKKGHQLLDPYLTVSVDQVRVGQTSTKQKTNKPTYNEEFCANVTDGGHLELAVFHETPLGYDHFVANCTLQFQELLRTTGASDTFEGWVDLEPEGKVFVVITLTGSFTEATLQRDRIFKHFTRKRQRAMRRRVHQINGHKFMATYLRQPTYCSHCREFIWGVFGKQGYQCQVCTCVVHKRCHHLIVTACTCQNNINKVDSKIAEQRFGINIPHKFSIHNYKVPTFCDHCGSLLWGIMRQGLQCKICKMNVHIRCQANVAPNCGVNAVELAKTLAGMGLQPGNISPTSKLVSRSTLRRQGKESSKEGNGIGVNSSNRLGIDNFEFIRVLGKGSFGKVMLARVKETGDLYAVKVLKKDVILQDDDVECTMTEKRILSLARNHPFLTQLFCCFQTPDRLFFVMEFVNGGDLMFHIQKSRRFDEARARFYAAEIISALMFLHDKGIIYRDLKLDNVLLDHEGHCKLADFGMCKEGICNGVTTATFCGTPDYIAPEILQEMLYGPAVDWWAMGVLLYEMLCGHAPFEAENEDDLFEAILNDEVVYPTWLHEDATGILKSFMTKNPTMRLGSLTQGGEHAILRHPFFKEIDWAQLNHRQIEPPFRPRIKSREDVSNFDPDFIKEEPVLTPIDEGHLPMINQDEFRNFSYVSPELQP

DRAK1(h) = target: T10, DRAK1(h) (Homo sapiens, UniProt Q9UEE5); experiment: Eurofins kinase panel; type: biochemical; settings: read-out: Inhibition rate (%)
T10 construct: purchased Eurofins (KinaseProfiler)
T10 sequence (Q9UEE5 1-414): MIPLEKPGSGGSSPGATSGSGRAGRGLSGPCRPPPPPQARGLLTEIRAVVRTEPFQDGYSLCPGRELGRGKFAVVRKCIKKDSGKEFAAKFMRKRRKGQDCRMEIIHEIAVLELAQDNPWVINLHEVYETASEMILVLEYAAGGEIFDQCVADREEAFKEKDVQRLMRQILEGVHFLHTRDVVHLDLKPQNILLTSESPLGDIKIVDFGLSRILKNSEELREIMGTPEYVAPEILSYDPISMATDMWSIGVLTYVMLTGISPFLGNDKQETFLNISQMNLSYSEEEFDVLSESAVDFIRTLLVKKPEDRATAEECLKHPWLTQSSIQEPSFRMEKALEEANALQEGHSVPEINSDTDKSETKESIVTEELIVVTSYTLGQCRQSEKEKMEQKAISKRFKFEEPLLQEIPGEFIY

T1 sequence (P11309 whole entry): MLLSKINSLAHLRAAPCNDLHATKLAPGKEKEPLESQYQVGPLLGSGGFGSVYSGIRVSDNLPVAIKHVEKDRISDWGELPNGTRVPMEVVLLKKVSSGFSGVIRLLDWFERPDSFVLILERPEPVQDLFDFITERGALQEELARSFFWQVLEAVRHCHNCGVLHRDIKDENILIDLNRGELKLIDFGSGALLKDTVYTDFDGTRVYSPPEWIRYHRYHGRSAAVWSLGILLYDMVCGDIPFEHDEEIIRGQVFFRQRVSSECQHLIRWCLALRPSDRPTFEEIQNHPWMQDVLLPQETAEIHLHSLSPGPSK

**Q.** What does the source list for `COc1cc(OC)c(Cl)c(-c2ccc3c(NC(=O)c4ccc(N5CCNC(C)(C)C5)cc4)n[nH]c3n2)c1Cl` [3D185]?
**A.** inhibition at 0.01 µM (Pim-1(h); 10 nM): -5%; inhibition at 0.1 µM (Pim-1(h); 100 nM): 13%; inhibition at 1 µM (Pim-1(h); 1000 nM): 9%; inhibition at 0.01 µM (DAPK1(h); 10 nM): 5%; inhibition at 0.1 µM (DAPK1(h); 100 nM): 13%; inhibition at 1 µM (DAPK1(h); 1000 nM): 19%; inhibition at 0.01 µM (cKit(V654A)(h); 10 nM): 4%; inhibition at 0.1 µM (cKit(V654A)(h); 100 nM): 14%; inhibition at 1 µM (cKit(V654A)(h); 1000 nM): 37%; inhibition at 0.01 µM (PhKγ2(h); 10 nM): 12%; inhibition at 0.1 µM (PhKγ2(h); 100 nM): -8%; inhibition at 1 µM (PhKγ2(h); 1000 nM): -3%; inhibition at 0.01 µM (NEK11(h); 10 nM): 5%; inhibition at 0.1 µM (NEK11(h); 100 nM): 15%; inhibition at 1 µM (NEK11(h); 1000 nM): 37%; inhibition at 0.01 µM (ACK1(h); 10 nM): 1%; inhibition at 0.1 µM (ACK1(h); 100 nM): 37%; inhibition at 1 µM (ACK1(h); 1000 nM): 90%; IC50 (PBMC (CSF-2)): > 1 µM; inhibition at 0.01 µM (MST3(h); 10 nM): -2%; inhibition at 0.1 µM (MST3(h); 100 nM): 8%; inhibition at 1 µM (MST3(h); 1000 nM): 70%; inhibition at 0.01 µM (WNK2(h); 10 nM): 0%; inhibition at 0.1 µM (WNK2(h); 100 nM): -1%; inhibition at 1 µM (WNK2(h); 1000 nM): 22%; inhibition at 0.01 µM (PKCη(h); 10 nM): -10%; inhibition at 0.1 µM (PKCη(h); 100 nM): -1%; inhibition at 1 µM (PKCη(h); 1000 nM): -9%; inhibition at 0.01 µM (DRAK1(h); 10 nM): -4%; inhibition at 0.1 µM (DRAK1(h); 100 nM): 7%; inhibition at 1 µM (DRAK1(h); 1000 nM): 14%
